Like-named read-outs stand apart in the source and are kept apart here.
Test: Hydrolytic stability in buffered aqueous solutions (HPLC)
Type: physicochemical
Details: 40° C., read-out: t1/2 (hr) at 40° C. (converted)
Method: Hydrolytic stability of valacyclovir and 1-amino-cyclopropanecarboxylic acid 2-(2-amino-6-oxo-1,6-dihydro-purin-9-ylmethoxy)-ethyl ester trifluoroacetic acid salt
Test samples of valacyclovir and 1-amino-cyclopropanecarboxylic acid 2-(2-amino-6-oxo-1,6-dihydro-purin-9-ylmethoxy)-ethyl ester trifluoroacetic acid salt (Example 1) are dissolved in buffered solutions of known pH at a concentration of 100 mcg/mL. Compound samples are prepared in 0.1 N hydrochloric acid for pH 1 and phosphate based buffer for pH2, 4, 6, 8 and 10. Stability is conveniently assessed using a semi-automated HPLC technique. Compound samples are loaded onto an HPLC autosampler incubated at 40° C. Samples are repeatedly injected on the HPLC at specific time intervals. The peak area of the compound samples are monitored by UV detection.
The HPLC system consisted of an Agilent® 1100 autoinjector, pump, degasser and LV detector. A Waters® Atlantis dC-18 column (3 micron, 150×4.6 mm I.D.) is used to separate the degradation products from the compound sample. An isocratic reversed-phase system using ultraviolet detection is used to monitor the peak areas of the compound sample over a 24 hour period. The mobile phase composition is 5% acetonitrile and 95% water with 0.1% trifluoroacetic acid added to the mixture. The flow rate is 1.5 mL/min. The column temperature is 30 degrees Celsius and the injection volume was 10 μL. The UV detector is set at 256 nm and the run time was 9 minutes. Time points are analyzed every 2 hours for each buffer while being incubated at 40 degrees Celsius by the thermostat controlled autosampler.
The peak area of the compound sample is monitored over a 24 hour period at 2 hour intervals. The peak area of the compound sample is plotted versus time for each of the buffers tested. A first order calculation is used to determine the rate constant for each buffer based on the loss of peak area over time. The half-life, in hours, is calculated by dividing 0.693 by the rate constant (k). t1/2 (hr)=0.693/k.

[1] = pH = 1, 0.1 N hydrochloric acid
[2] = pH = 10, phosphate based buffer

Row | half-life at 100 mcg/mL [1] [h] | half-life at 100 mcg/mL (pH = 2, phosphate based buffer) [h] | half-life at 100 mcg/mL (pH = 4, phosphate based buffer) [h] | half-life at 100 mcg/mL (pH = 6, phosphate based buffer) [h] | half-life at 100 mcg/mL (pH = 8, phosphate based buffer) [h] | half-life at 100 mcg/mL [2] [h] | SMILES
1 | > 300 | > 300 | > 300 | > 300 | 90.1 | 23.8 | Nc1nc2c(ncn2COCCOC(=O)C2(N)CC2)c(=O)[nH]1.O=C(O)C(F)(F)F [Example 1, 1-amino-cyclopropanecarboxylic acid 2-(2-amino-6-oxo-1,6-dihydro-purin-9-ylmethoxy)-ethyl ester trifluoroacetic acid salt]
2 | > 300 | > 300 | > 300 | 69.7 | 7.8 | 6.8 | CC(C)[C@H](N)C(=O)OCCOCn1cnc2c(=O)[nH]c(N)nc21 [valacyclovir, 2(2-amino-1,6-didydro-6-oxo-9H(purin-9-yl)methoxy)ethyl L-valinate]

Reference: patent publication US7846937B2, “Cyclopropanecarboxylate esters of acyclovir” (Eli Lilly and Company, priority 2005, dated 2010)
